Measurements taken from patent US5652097A, “In vitro test to evaluate the inhibition potency of angiotensin II antagonists on angiotensinogen” (priority 1994, dated 1997).

Columns and labels:
[1] = test system: expression of pOCAT (ANG N-1498/+18) in Hepa 1-6 cells; conditions: cited from earlier work
[2] = test system: expression of pOGH (ANG N-1498/+18) in Hep G-TW7 cells; assay: Stimulation of expression of pOGH (ANG N-1498/+18) in stable Hep G-TW7 cells by angiotensins, IR-hGH by RIA; assay type: cell-based, human; conditions: 24 hours; for concentration giving maximal stimulation of expression of pOGH (ANG N-1498/+18): 10^-11 to 10^-5 mol/L tested
Protocol: The method for the selection of stable hepatoma transformants with high expression of pOGH (ANG N-1498/+18) was similar to that described previously for opossum kidney cells (Wang TT et al., Kidney Int., 1994, 46:703-710). Briefly, plasmids pOGH (ANG N-1498/+18) and pRSV-Neo fusion genes were co-transfected (20 μg each) into Hep G-2 cells (1×10^6 cells) utilizing calcium phosphate-mediated endocytosis (Ming M. et al., Am. J. Hypertens., 1993, 6:141-148). After transfection, the cells were cultured overnight in 5.0 ml of DMEM containing 10% FBS. Then the medium was replaced with fresh medium containing 10% FBS and 500 μg/ml of aminoglycoside G 418 (Geneticin, Gibco Inc.). The stable transformants which were able to grow in the presence of G 418 and which secreted high levels of IR-hGH into the medium were further subcloned using the method of limiting dilution. Those cells that had passed through at least three repetitions of limiting dilution and continued to secrete high levels of IR-hGH after three months in the presence of G 418 were considered to be stable clones. One clone of human hepatoma (Hep G-TW7) with pOGH (ANG N-1498/+18) integrated into the genomes of Hep G-2 cells was obtained. The clone (Hep G-TW7) was used in accordance with the present invention.
Hep G-TW7 cells were plated at a density of 1-2×10^5 cells/well in 6-well plates and incubated overnight in DMEM containing 1% depleted FBS (dFBS). Then cell growth was arrested by incubation in serum-free medium for 24 hours. Subsequently, various concentrations of AII (10^-11 to 10^-5 mol/L) were added to the culture medium containing 1% dFBS. At the end of the incubation period, media were collected and kept at -20° C. until assay for IR-hGH.
Cells were incubated for up to 24 hours in the presence of various concentrations of AII. Media were harvested after 24 hours of incubation and assayed for IR-hGH. Each point represents the mean ±S.D. of at least three dishes (*p<0.05, **p<0.01 and **p<0.005).Similar results were obtained from two other experiments. It appears that maximal stimulation of expression of the pOGH (ANG N-1498/+18) was found with 10^-9 mol/L AII (p<0.01). At other concentrations of AII, it appears that the stimulatory effect of AII is minimal or inhibited.
(§1) The radioimmunoassay kit for hGH (RIA-hGH) was a gift from NIADDK, NIH, USA. The double antibody RIA procedure was similar to that previously used for the radioimmunoassay of ovine placental lactogen (Chan JSD et al., Endocrinology, 1978, 102:1606-1613). NIAMDD-hGH-1 (AFP-4793 B) was used for both iodination and as a hormone standard.
Hep G-TW7 cells were plated at a density of 1-2×10^5 cells/well in 6-well plates and incubated overnight in DMEM containing 1% depleted fetal bovine serum (dFBS). […]

[3] = test system: expression of pOGH (ANG N-1498/+18) fusion gene in Hep G-2 cells; assay: Transient gene transfection assay of pOGH (ANG N-1498/+18) in Hep G-2 cells, IR-hGH by RIA; assay type: cell-based, human; conditions: AII 10^-9 mol/L; for inhibition of the stimulatory effect of AII on expression of pOGH (ANG N-1498/+18): antagonist 10^-5 mol/L
Protocol: Plasmids or fusion genes were transfected into Hep G-2 cells utilizing calcium phosphate endocytosis as described previously (Ming M. et al., Am. J. Hypertens., 1993, 6:141-148). It was previously shown that optimal dose of DNA for gene transfection in mouse hepatoma (Hepa 1-6) cells is 20 μg of supercoiled DNA per 0.5-1×10^6 cells (Ming M. et al., Am. J. Hypertens., 1993, 6:141-148). Similar results were obtained in Hep G-2 cells. Thus, in present studies, a total of 20 μg DNA was routinely used in the cell transfection.
To study the effect of AII in the presence or absence of various AII antagonists on the expression of fusion gene in transient gene transfection assays, cells were incubated in DMEM without FBS, 10^-9 mol/L AII with or without 10^-5 mol/L AII antagonist were added on day 1 after DNA transfection. The media or cells were harvested on day 2 for assay of IR-hGH or CAT enzymatic activity, respectively.
In order to normalize the efficiency of transfection of pOGH (ANG N-1498/+18), 1 μg of pRSVCAT (a vector with the Rous Sarcoma Virus enhancer/promoter sequence fused to the 5'-end of the CAT coding sequence) was cotransfected with the pOGH (ANG N-1498/+18) (20 μg DNA). The results of pOGH (ANG N-1498/+18) were normalized to the efficiency of transfection of pRSVCAT. The levels of transfection efficiency for pOGH (ANG N-1498/+18) in human hepatoma cells was 25+12% as compared to pRSVCAT.
Results are expressed as the percentage of the control (without addition of AII antagonist, 100%), mean ±S.D. AII (10^-9 mol/L) stimulated the expression of the ANG-GH fusion gene by 1.4-fold (p<0.01) as compared to the control (absence of AII) in Hep G-2 cells. In the presence of Lorsatan™ (10^-5 mol/L) or Saralasin™ (10^-5 mol/L), the stimulatory effect of AII was inhibited.
as §1

[4] = test system: expression of pOGH (ANG N-1498/+18) in Hep G-TW7 cells stimulated by AII; assay: Inhibition of AII-stimulated expression of pOGH (ANG N-1498/+18) in Hep G-TW7 cells, IR-hGH by RIA; assay type: cell-based, human; conditions: AII 10^-9 mol/L, 24 hours; for effect on the stimulatory effect of AII on expression of pOGH (ANG N-1498/+18): various concentrations of test substance
Protocol: Hep G-TW7 cells were plated at a density of 1-2×10^5 cells/well in a. 6-well plate and incubated overnight in DMEM containing 1% depleted FBS (dFBS). Then cell growth was arrested by incubation in serum-free medium for 24 hours. Subsequently, various concentrations (10^-9 to 10^-5 mol/L) of Lorsatan™, Saralasin™ and CGP 42112A™ were added to the culture medium containing 1% dFBS in the presence of 10^-9 mol/L AII and incubated for 24 hours. At the end of the incubation period, media were collected and kept at -20° C. until assay.
Cells were incubated for up to 24 hours in the presence of AII (10-9mol/L) and various concentrations of Lorsatan™ (10^-9 to 10^-5 mol/L) or Saralasin™ (10^-9 to 10^-5 mol/L) or CGP 42112A™ (10^-9 to 10^-5 mol/L). Media harvested and assayed for the level of IR-hGH.
Hep G-TW7 cells were plated at a density of 1-2×10^5 cells/well in a 6-well plate and incubated overnight in DMEM containing 1% dFBS. Then cells growth was arrested by incubation in serum-free medium for 24 hours. […] At the end of the incubation period, media were collected and kept at -20° C. until assay.
Media were harvested and assayed for the level of IR-hGH.
The radioimmunoassay kit for hGH (RIA-hGH) was a gift from NIADDK, NIH, USA. […] NIAMDD-hGH-1 (AFP-4793 B) was used for both iodination and as a hormone standard.

[5] = test system: expression of pOCAT (ANG N-1498/+18) in hepatoma cells; assay: Transient gene transfection of pOCAT (ANG N-1498/+18) in the presence of hGH, CAT assay; assay type: cell-based, human; conditions: hGH as high as 4.5 mmol/L
Text: The method for the CAT assay has been described previously (Ming M. et al., Am. J. Hypertens., 1993, 6:141-148). The results of all CAT assays are given as a mean+S.D. in triplicates.
In accordance with the present invention, the plasmid pOGH (ANG N-1498/+18) was employed to study the effect of AII (FIGS. 2 to 6). Since receptors for hGH are presented in Hep G-2 cells, this raised the possibility that the hGH secreted into the medium may have a stimulatory effect on the expression of the ANG gene. Thus, in order to investigate this possibility, transient gene transfection experiments were performed by employing pOCAT (ANG N-1498/+18) (Ming M. et al., Am. J. Hypertens., 1993, 6:141-148), in the presence of hGH. […] The use of plasmid pOGH (ANG N-1498/+18) in accordance with the present invention is appropriate.

In the case of `Nc1ncnc2c1nc(Br)n2[C@@H]1O[C@@H]2COP(=O)(O)O[C@H]2[C@H]1O` [8-Br-cAMP, 8-Bromo-cAMP], the “effect on the stimulatory effect of dexamethasone on expression of ANG-CAT fusion genes” value ([1]; added with DEX) is given as “enhanced the stimulatory effect” and the “effect on expression of ANG-CAT fusion genes, substance alone” value [1] is given as “no stimulatory effect”.
With `CC[C@H](C)[C@H](NC(=O)[C@H](Cc1ccc(O)cc1)NC(=O)[C@@H](NC(=O)[C@@H](N)CCCNC(=N)N)C(C)C)C(=O)N[C@@H](Cc1c[nH]cn1)C(=O)N1CCC[C@H]1C(=O)N[C@@H](Cc1ccccc1)C(=O)O` [AIII, angiotensin III] the “effective dose for stimulating the expression of pOGH (ANG N-1498/+18)” value [2] was > 10^-5 mol/L.
In the case of `CCCCc1nc(Cl)c(CO)n1Cc1ccc(-c2ccccc2-c2nn[nH]n2)cc1` [Lorsatan], the “inhibition of the stimulatory effect of AII on expression of pOGH (ANG N-1498/+18)” value [3] is reported as “inhibited”, the “effect on the stimulatory effect of AII on expression of pOGH (ANG N-1498/+18)” value (from here on “effect on the stimulatory effect of AII”) [4] is reported as “inhibits the stimulatory effect of AII” and the minimal effective concentration ([4]; Homo sapiens, read-out: effective dose for the inhibition of the AII-stimulated expression of pOGH (ANG N-1498/+18)) is reported as 0.001 µM.
For `CNCC(=O)N[C@@H](CCCN=C(N)N)C(=O)N[C@H](C(=O)N[C@@H](Cc1ccc(O)cc1)C(=O)N[C@H](C(=O)N[C@@H](Cc1cnc[nH]1)C(=O)N1CCC[C@H]1C(=O)N[C@@H](C)C(=O)O)C(C)C)C(C)C` [Saralasin], the “inhibition of the stimulatory effect of AII on expression of pOGH (ANG N-1498/+18)” value [3] was “inhibited”, the “effective dose for the inhibition of the AII-stimulated expression of pOGH (ANG N-1498/+18)” value [4] was 10^-7 mol/L and the “effect on the stimulatory effect of AII” value [4] was “inhibits the stimulatory effect of AII”.
For `CN[C@@H]1C[C@H]2O[C@@](C)([C@@H]1OC)n1c3ccccc3c3c4c(c5c6ccccc6n2c5c31)C(=O)NC4` [Staurosporine], the “effect on the stimulatory effect of AII” value [4] was “inhibits the stimulatory effect of AII”.
For `C[C@@H]1C[C@H]2[C@@H]3CCC4=CC(=O)C=C[C@]4(C)[C@@]3(F)[C@@H](O)C[C@]2(C)[C@@]1(O)C(=O)CO` [dexamethasone], the “effect on expression of ANG-CAT fusion genes, substance alone” value [1] is listed as “stimulates the expression”.
With CGP 42112A the “inhibition of the stimulatory effect of AII on expression of pOGH (ANG N-1498/+18)” value [3] was “no inhibitory effect” and the “effective dose for the inhibition of the AII-stimulated expression of pOGH (ANG N-1498/+18)” value [4] was > 10^-5 mol/L.
With “angiotensin I (DRVYIHPFHL; Angiotensin-1; UniProt P01019 25-34, looked up) [AI]” the “concentration giving maximal stimulation of expression of pOGH (ANG N-1498/+18)” value [2] was 10^-7 mol/L.
For “angiotensin II (DRVYIHPF; Angiotensin-2; UniProt P01019 25-32, looked up) [AII, peptide derived from angiotensinogen; stimulus of ANG gene expression]”, the “stimulation of the expression of the ANG-GH fusion gene as compared to the control (absence of AII)” value ([3]; p<0.01, 0.001 µM) was 1.4 fold, the “effective dose for stimulating the expression of pOGH (ANG N-1498/+18)” value [2] was 10^-9 mol/L and the “concentration giving maximal stimulation of expression of pOGH (ANG N-1498/+18)” value [2] was 10^-9 mol/L.
With hGH: human growth hormone the “effect of hGH on expression of pOCAT (ANG N-1498/+18)” value [5] was “No significant increase”.
